Holding throughout (type): cell-based
In assay [1] the test system is Escherichia coli GN 2411-5. Put plainly: Antibacterial activity, Heart Infusion Agar Dilution Method (pH 7.2). Particulars: GN2411. The protocol: (§1) Antibacterial activities of the compounds obtained in Examples 6 and 8 are measured according to the Heart Infusion Agar Dilution Method (pH 7.2). Cefazolin is used as a control.
Background: In agar dilution, organisms are placed on agar that contains the substance at set levels.

The subject of assay [2] is Escherichia coli Juhl. The assay is described as above. The protocol:
as §1

Assay [3] concerns Escherichia coli NIHJC-2. The description is as above. On the procedure:
as §1

The subject of assay [4] is Klebsiella pneumoniae 8045. The assay is described as above. The protocol: as §1
Assay [5] concerns Klebsiella pneumoniae Y-60. Described as above. To be noted: Y60. The protocol:
as §1

The test system of assay [6] is Proteus mirabilis 1287. The description is as above. On the procedure:
as §1

In assay [7] the test system is Proteus morganii KY4298. The description is as above. To be noted: Morganella morganii. The protocol: as §1
Assay [8] deals with Proteus rettgeri KY4289. The description is as above. To be noted: Providencia rettgeri. The protocol:
as §1

Assay [9] deals with Proteus vulgaris 6897. Described as above. On the procedure: as §1
The subject of assay [10] is Pseudomonas aeruginosa 145. Described as above. On the procedure: as §1
Assay [11] has as its system Pseudomonas aeruginosa No. 1. Described as above. On the procedure: as §1
Assay [12] concerns Pseudomonas putida F264. The assay is described as above. On the procedure: as §1
Assay [13] deals with Serratia marcescens T-26. Described as above. Particulars: T26. On the procedure: as §1
The subject of assay [14] is Serratia marcescens T-55. The description is as above. Particulars: T55. The protocol:
as §1

Assay [15] relates to Staphylococcus aureus 209-P. The description is as above. The protocol:
as §1

The subject of assay [16] is Staphylococcus aureus Smith. The description is as above. On the procedure: as §1
The test system of assay [17] is Staphylococcus epidermidis. Described as above. On the procedure: as §1
Assay [18] has as its system Bacillus subtilis KY4273. Put plainly: Antibacterial activity, Heart Infusion Agar Dilution Method (pH 7.0). The protocol:
(§2) Antibacterial activities of the product obtained in this Example are measured according to the Heart Infusion Agar Dilution Method (pH 7.0).

Assay [19] has as its system Erwinia aroides KY3241. Described as above. The protocol:
as §2

Assay [20] concerns Escherichia coli KY4271. The assay is described as above. On the procedure:
as §2

In assay [21] the test system is Klebsiella pneumonia KY4275. The assay is described as above. To be noted: Klebsiella pneumoniae. The protocol:
as §2

Assay [22] deals with Proteus vulgaris KY4277. The assay is described as above. The protocol: as §2
The test system of assay [23] is Salmonella typhosa KY4278. The description is as above. Particulars: Salmonella enterica. On the procedure:
as §2

The test system of assay [24] is Shigella sonnei KY4281. The description is as above. On the procedure:
as §2

Assay [25] concerns Staphylococcus aureus KY4279. The assay is described as above. The protocol:
as §2

Assay [26] deals with Vibrio percolans KY4174. The description is as above. To be noted: Comamonas terrigena. The protocol: as §2
The mark [27] stands for this setting: Escherichia coli Juhl, agar dilution, read-out: MIC.
The mark [28] stands for this setting: NIHJC2, Escherichia coli NIHJC-2, agar dilution, pH 7.2, read-out: MIC.

Values after ≈ are worked out from the molar mass of the structure shown. Read-outs that look alike come from different tables or passages of the source.

The term MIC denotes the lowest concentration that inhibits growth of the organism.

Consider `CO/N=C(\C(=O)N[C@@H]1C(=O)N2C(C(=O)O)=CC=C[C@H]12)c1csc(N)n1` (relative stereo) [Example 8, (±)-cis-7-[2-(2-amino-4-thiazolyl)-2-syn-methoxyiminoacetamido]-1-azabicyclo[4,2,0]oct-2,4-diene-8-on-2-carboxylic acid], for which the minimal inhibitory concentration (MIC) in [1] is 25 µg/mL (≈ 68.8 µM); in assay [2] (setting [27]) it was 50 µg/mL (≈ 138 µM); in assay [3] (setting [28]) it was 25 µg/mL (≈ 68.8 µM); in [4], 6.25 µg/mL (≈ 17.2 µM); in [5], at least 50 µg/mL; in assay [6], 6.25 µg/mL (≈ 17.2 µM). The minimal inhibitory concentration (MIC) was 12.5 µg/mL (≈ 34.4 µM) in assay [7]; 6.25 µg/mL (≈ 17.2 µM) in [8]; 6.25 µg/mL (≈ 17.2 µM) in assay [9]; at least 50 µg/mL in assay [10]; at least 50 µg/mL in assay [11]; 12.5 µg/mL (≈ 34.4 µM) in assay [12]. For the same compound, the MIC was at least 50 µg/mL in [13]; 50 µg/mL (≈ 138 µM) in assay [14]; at least 50 µg/mL in [15]; at least 50 µg/mL in [16]; at least 50 µg/mL in [17].
As to `CO/N=C(/C(=O)N[C@@H]1C(=O)N2C(C(=O)O)=CC=C[C@H]12)c1csc(N)n1` (relative stereo) [Example 6, (±)-cis-7-[2-(2-amino-4-thiazolyl)-2-anti-methoxyiminoacetamido]-1-azabicyclo[4,2,0]oct-2,4-diene-8-on-2-carboxylic acid], the MIC in [1] is at least 50 µg/mL; in assay [2] (setting [27]) it was at least 50 µg/mL; in assay [3] (setting [28]), at least 50 µg/mL; in assay [4] it was 50 µg/mL (≈ 138 µM); in assay [5], at least 50 µg/mL; in [6], at least 50 µg/mL. The MIC in assay [7], in assay [8], in assay [9], in [10], in [11] and in [12] was at least 50 µg/mL throughout. The MIC in [13], in assay [14], in assay [15], in assay [16] and in assay [17] was at least 50 µg/mL in each case.
For `Cc1nnc(SCC2=C(C(=O)O)N3C(=O)[C@@H](NC(=O)Cn4cnnn4)[C@H]3SC2)s1` [Cefazolin, reference compound], the minimum inhibitory concentration (MIC) was 1.56 µg/mL (≈ 3.43 µM) in assay [2] (Escherichia coli); 1.56 µg/mL (≈ 3.43 µM) in [3] (Escherichia coli, NIHJC2, pH 7.2); 0.78 µg/mL (≈ 1.72 µM) in assay [4]; 3.12 µg/mL (≈ 6.86 µM) in assay [5]; 12.5 µg/mL (≈ 27.5 µM) in assay [6]; above 100 µg/mL in assay [7]. Besides, the MIC in assay [8] is 25 µg/mL (≈ 55 µM); in assay [9], 12.5 µg/mL (≈ 27.5 µM); in assay [10], above 100 µg/mL; in assay [12], above 100 µg/mL; in assay [13] it was above 100 µg/mL; in [14], 50 µg/mL (≈ 110 µM). The MIC was below 0.05 µg/mL in [15], 0.4 µg/mL (≈ 0.88 µM) in assay [16] and 0.78 µg/mL (≈ 1.72 µM) in assay [17].
Turning to `O=C(Cc1cccs1)NC1C(=O)N2C(C(=O)O)=CC=CC12` (stereo not drawn) [Example 10, (±)-cis-7-[2-(thiophene-2-yl)acetylamino]-1-azabicyclo[4,2,0]oct-2,4-diene-8-on-2-carboxylic acid], the minimal inhibitory concentration (MIC) in [18] is 55.6 µg/mL (≈ 183 µM); in assay [19], 13.9 µg/mL (≈ 45.7 µM); in assay [20] it was above 55.6 µg/mL; in [21], 27.8 µg/mL (≈ 91.3 µM); in assay [22], 27.8 µg/mL (≈ 91.3 µM); in assay [23] it was 13.9 µg/mL (≈ 45.7 µM). The MIC was above 55.6 µg/mL in assay [24], 27.8 µg/mL (≈ 91.3 µM) in assay [25] and 55.6 µg/mL (≈ 183 µM) in assay [26].

The values are drawn from patent US4343943A, “Cephalosporin analogs” (Kyowa Hakko Kogyo Co., Ltd., priority 1978, dated 1982).
